# Read-outs that look alike come from different tables or passages of the source.
# Assays:
# [1] = system: ppMlc (T18/S19) levels in A7R5 cells; assay: A7R5 in-cell ELISA (pMLC); format: cell-based, Rat; conditions: Rattus norvegicus, A7R5, A7R5 cells; for inhibition at 10 µM: 10 μM compound; for inhibition at 10 µM / inhibition at 1 µM: read-out: pMLC % inh A7R5 @ [conc]; for IC50: ppMlc (T18/S19); for inhibition at 1 µM: 1 μM compound
# Method in brief: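 A7R5 rat aortic smooth muscle cells seeded 24 h, then treated 90 min with a 9-point 2-fold compound dilution series. Fixed cells probed for ppMlc (T18/S19) by colorimetric in-cell ELISA; cellular IC50 from nonlinear regression curve fit.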
# [2] = molecular target: Recombinant ROCK2 (amino acids 1-552) (Homo sapiens (Human), UniProt O75116); assay: Z′-Lyte kinase assay, ROCK2; format: biochemical; conditions: for inhibition at 1 µM: 1 μM compound, read-out: ROCK2 % inh. @ [conc]
# Method in brief: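 Recombinant human ROCK1 (aa 1-535) or ROCK2 (aa 1-552) activity read by Z′-Lyte kinase assay. Percent inhibition at 1 μM compound was normalized to DMSO control; IC50 from 9-point 2-fold serial dilutions by nonlinear regression.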
# [3] = 9 points 2-fold serial dilution
# Chain of Recombinant ROCK2 (amino acids 1-552) (O75116 1-552): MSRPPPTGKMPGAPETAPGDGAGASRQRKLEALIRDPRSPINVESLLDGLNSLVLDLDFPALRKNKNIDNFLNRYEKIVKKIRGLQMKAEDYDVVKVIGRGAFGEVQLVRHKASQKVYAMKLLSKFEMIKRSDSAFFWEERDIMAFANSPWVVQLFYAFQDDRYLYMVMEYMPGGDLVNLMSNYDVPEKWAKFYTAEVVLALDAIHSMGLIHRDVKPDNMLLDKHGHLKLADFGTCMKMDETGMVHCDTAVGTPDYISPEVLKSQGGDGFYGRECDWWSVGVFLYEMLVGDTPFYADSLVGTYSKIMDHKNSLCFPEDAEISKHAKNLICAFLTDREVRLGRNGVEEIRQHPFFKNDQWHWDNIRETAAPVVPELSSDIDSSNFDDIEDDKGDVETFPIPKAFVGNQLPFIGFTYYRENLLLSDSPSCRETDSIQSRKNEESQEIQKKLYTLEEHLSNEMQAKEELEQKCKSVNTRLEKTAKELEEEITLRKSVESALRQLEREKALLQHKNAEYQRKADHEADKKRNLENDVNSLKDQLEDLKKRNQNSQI
inhibition at 1 µM [2] [%],IC50 [1] [nM],SMILES,inhibition at 10 µM [1] [%],inhibition at 1 µM [1] [%],also measured
71.4,–,"CCC1CN(c2ncc(F)c(Nc3ccc4[nH]ncc4c3)n2)CCN1 (stereo not drawn) [Example 149, N-(2-(3-ethylpiperazin-1-yl)-5-fluoropyrimidin-4-yl)-1H-indazol-5-amine]",49.4,–,–
67.5,1390,"Cc1cc(Nc2ccc3[nH]ncc3c2)nc(N2CCCNC(C(C)C)C2)n1 (stereo not drawn) [Example 110, N-(2-(3-isopropyl-1,4-diazepan-1-yl)-6-methylpyrimidin-4-yl)-1H-indazol-5-amine]",50.9,–,–
82.9,997,"Cc1cnc(N2CCCNCC2C)nc1Nc1ccc2[nH]ncc2c1 (stereo not drawn) [Example 104, N-(5-methyl-2-(2-methyl-1,4-diazepan-1-yl)pyrimidin-4-yl)-1H-indazol-5-amine]",–,31.6,–
59.3,2150,"CCC1CNCCN1c1ncc(F)c(Nc2ccc3[nH]ncc3c2)n1 (stereo not drawn) [Example 143, N-(2-(2-ethylpiperazin-1-yl)-5-fluoropyrimidin-4-yl)-1H-indazol-5-amine]",49.8,–,–
17.6,–,"Fc1cnc(N2CCN3CCNCC3C2)nc1Nc1ccc2[nH]ncc2c1 (stereo not drawn) [Example 173, N-(5-fluoro-2-(octahydro-2H-pyrazino[1,2-a]pyrazin-2-yl)pyrimidin-4-yl)-1H-indazol-5-amine]",–,1.3,–
83.3,1600,"Cc1nc(N2CCCNCC2)nc(Nc2ccc3[nH]ncc3c2)c1C [Example 8, N-(2-(1,4-diazepan-1-yl)-5,6-dimethylpyrimidin-4-yl)-1H-indazol-5-amine]",89,–,–
47.9,–,"Cc1cnc(N2CCNC(C)C2)nc1Nc1ccc2[nH]ncc2c1 (stereo not drawn) [Example 91, N-(5-methyl-2-(3-methylpiperazin-1-yl)pyrimidin-4-yl)-1H-indazol-5-amine]",46.7,–,–
97.3,839,"c1cc2[nH]ncc2cc1Nc1nc(N2CCCNCC2)nc2c1CSC2 [Example 12, 2-(1,4-diazepan-1-yl)-N-(1H-indazol-5-yl)-5,7-dihydrothieno[3,4-d]pyrimidin-4-amine]",95,–,–
19.7,–,"CC(C)C1CN(c2ncc(Cl)c(Nc3ccc4[nH]ncc4c3)n2)CCN1 (stereo not drawn) [Example 185, N-(5-chloro-2-(3-isopropylpiperazin-1-yl)pyrimidin-4-yl)-1H-indazol-5-amine]",41.6,–,–
91.9,–,"Cc1cc(Nc2ccc3[nH]ncc3c2)nc(N2CCNC3(CC3)C2)n1 [Example 212, N-(6-methyl-2-(4,7-diazaspiro[2.5]octan-7-yl)pyrimidin-4-yl)-1H-indazol-5-amine]",–,16.1,–
41,–,"CCC1CN(c2ncc(Cl)c(Nc3ccc4[nH]ncc4c3)n2)CCN1 (stereo not drawn) [Example 190, N-(5-chloro-2-(3-ethylpiperazin-1-yl)pyrimidin-4-yl)-1H-indazol-5-amine]",45.9,–,–
94.4,510,"CCC1CNCCN1c1nccc(Nc2ccc3[nH]ncc3c2)n1 (stereo not drawn) [Example 235, N-(2-(2-ethylpiperazin-1-yl)pyrimidin-4-yl)-1H-indazol-5-amine]",–,–,"IC50 [2, 3]: 54 nM"
–,312,"Clc1cnc(N2CCCNCC2)nc1Nc1ccc2[nH]ncc2c1 [Example 4, N-(5-chloro-2-(1,4-diazepan-1-yl)pyrimidin-4-yl)-1H-indazol-5-amine]",95.3,–,"IC50 [2, 3]: 139 nM"
81.9,1020,"Cc1cc(Nc2ccc3[nH]ncc3c2)nc(N2CCNC(C)CC2)n1 (stereo not drawn) [Example 116, N-(6-methyl-2-(5-methyl-1,4-diazepan-1-yl)pyrimidin-4-yl)-1H-indazol-5-amine]",51.6,–,–
–,1010,"CC1CN(c2nccc(Nc3ccc4[nH]ncc4c3)n2)C(C)CN1 (stereo not drawn) [Example 68, N-(2-(2,5-dimethylpiperazin-1-yl)pyrimidin-4-yl)-1H-indazol-5-amine]",–,35.4,"IC50 [2, 3]: 294 nM"
77.6,1540,"CC1CNCCN1c1ncc(Cl)c(Nc2ccc3[nH]ncc3c2)n1 (stereo not drawn) [Example 179, N-(5-chloro-2-(2-methylpiperazin-1-yl)pyrimidin-4-yl)-1H-indazol-5-amine]",67.4,–,–
78.1,1850,"COc1cnc(N2CCNC(C)C2)nc1Nc1ccc2[nH]ncc2c1 (stereo not drawn) [Example 31, N-(5-methoxy-2-(3-methylpiperazin-1-yl)pyrimidin-4-yl)-1H-indazol-5-amine]",58,–,–
68.4,1880,"CCC1CCN(c2nc(C)cc(Nc3ccc4[nH]ncc4c3)n2)CCN1 (stereo not drawn) [Example 109, N-(2-(5-ethyl-1,4-diazepan-1-yl)-6-methylpyrimidin-4-yl)-1H-indazol-5-amine]",52.3,–,–
52.9,–,"Cc1nc(N2CCNC(C)CC2)nc(Nc2ccc3[nH]ncc3c2)c1C (stereo not drawn) [Example 25, N-(5,6-dimethyl-2-(5-methyl-1,4-diazepan-1-yl)pyrimidin-4-yl)-1H-indazol-5-amine]",48.3,–,–

# Continued, compound first:
SMILES,inhibition at 1 µM [2] [%],IC50 [1] [nM],inhibition at 10 µM [1] [%],inhibition at 1 µM [1] [%],also measured
"N[C@H]1CCN(c2nccc(Nc3ccc(-c4cn[nH]c4)cc3)n2)C1 [Example 254, (S)—N-(4-(1H-pyrazol-4-yl)phenyl)-2-(3-aminopyrrolidin-1-yl)pyrimidin-4-amine]",–,–,16.2,–,IC50 [2]: 1230 nM
"c1cc(Nc2ccc3[nH]ncc3c2)nc(N2CC3CCC(C2)N3)n1 [Example 229, N-(2-(3,8-diazabicyclo[3.2.1]octan-3-yl)pyrimidin-4-yl)-1H-indazol-5-amine]",–,–,81,–,"IC50 [2, 3]: 77 nM"
"Clc1cnc(N2CC3CC(C2)N3)nc1Nc1ccc2[nH]ncc2c1 [Example 280, N-(2-(3,6-diazabicyclo[3.1.1]heptan-3-yl)-5-chloropyrimidin-4-yl)-1H-indazol-5-amine]",–,–,–,26.6,IC50 [2]: 263 nM
"c1cc2[nH]ncc2cc1Nc1nc(N2CCCNCC2)nc2c1CCCC2 [Example 9, 2-(1,4-diazepan-1-yl)-N-(1H-indazol-5-yl)-5,6,7,8-tetrahydroquinazolin-4-amine]",98.7,1200,93.5,–,–
"c1cc(Nc2ccnc(N3CCNCC3)n2)cc(-c2cn[nH]c2)c1 [Example 347, N-(3-(1H-pyrazol-4-yl)phenyl)-2-(piperazin-1-yl)pyrimidin-4-amine]",–,–,17,–,IC50 [2]: > 10000 nM
"Cc1cc(Nc2ccc3[nH]ncc3c2)nc(N2CC3CC(C2)N3)n1 [Example 120, N-(2-(3,6-diazabicyclo[3.1.1]heptan-3-yl)-6-methylpyrimidin-4-yl)-1H-indazol-5-amine]",93.1,–,–,23.4,–
"COc1cccc(CN(C)C2CCCN(c3nccc(Nc4ccc5[nH]ncc5c4)n3)C2)c1 (stereo not drawn) [Example 242, N-(2-(3-((3-methoxybenzyl)(methyl)amino)piperidin-1-yl)pyrimidin-4-yl)-1H-indazol-5-amine]",–,–,41.2,–,IC50 [2]: 747 nM
"O=c1ccc(-c2ccc(Nc3ccnc(N4CCNCC4)n3)cc2)n[nH]1 [Example 357, 6-(4-((2-(piperazin-1-yl)pyrimidin-4-yl)amino)phenyl)pyridazin-3 (2H)-one]",–,–,6.35,–,IC50 [2]: 1900 nM
"Clc1cnc(N2CC3CCC(C2)N3)nc1Nc1ccc2[nH]ncc2c1 [Example 195, N-(2-(3,8-diazabicyclo[3.2.1]octan-3-yl)-5-chloropyrimidin-4-yl)-1H-indazol-5-amine]",66,–,–,-3.1,"IC50 [2, 3]: 405 nM"
"Cc1cc(Nc2ccc3[nH]ncc3c2)nc(N2CC(C3CCNCC3)c3ccccc32)n1 (stereo not drawn) [Example 137, N-(6-methyl-2-(3-(piperidin-4-yl)indolin-1-yl)pyrimidin-4-yl)-1H-indazol-5-amine]",21.6,–,–,24.4,–
"c1cc(Nc2ccc3[nH]ncc3c2)nc(N2CC3CNC(C3)C2)n1 (stereo not drawn) [Example 78, N-(2-(3,6-diazabicyclo[3.2.1]octan-3-yl)pyrimidin-4-yl)-1H-indazol-5-amine]",99.1,–,–,20.3,–
"O=C1Cc2cc(Nc3ccnc(N4CCNCC4)n3)ccc2N1 [Example 365, 5-((2-(piperazin-1-yl)pyrimidin-4-yl)amino)indolin-2-one]",–,–,5.72,–,IC50 [2]: > 10000 nM
"Fc1cnc(N2CCNC3(CC3)C2)nc1Nc1ccc2[nH]ncc2c1 [Example 153, N-(5-fluoro-2-(4,7-diazaspiro[2.5]octan-7-yl)pyrimidin-4-yl)-1H-indazol-5-amine]",–,–,–,23.8,"IC50 [2, 3]: 556 nM"
"c1ccc2c(c1)C(C1CCNCC1)CN2c1nccc(Nc2ccc3[nH]ncc3c2)n1 (stereo not drawn) [Example 88, N-(2-(3-(piperidin-4-yl)indolin-1-yl)pyrimidin-4-yl)-1H-indazol-5-amine]",13.8,–,–,5.6,–
"COc1ccc(N[C@@H]2CCN(c3nccc(Nc4ccc5[nH]ncc5c4)n3)C2)cc1 [Example 246, (R)—N-(2-(3-((4-methoxyphenyl)amino)pyrrolidin-1-yl)pyrimidin-4-yl)-1H-indazol-5-amine]",–,–,1.8,–,ROCK2 % inh. @ [conc] ([2]; concentration not given): 0%
"Nc1ccc(-c2ccc(Nc3ccnc(N4CCNCC4)n3)cc2)cn1 [Example 350, N-(4-(6-aminopyridin-3-yl)phenyl)-2-(piperazin-1-yl)pyrimidin-4-amine]",–,–,14.8,–,IC50 [2]: 3700 nM

# Reference: patent publication US11613531B2, “Inhibitors of RHO associated coiled-coil containing protein kinase” (Kadmon Corporation, LLC, priority 2017, dated 2023)
